Laboratory results: patent US6866870B2 (priority 2002, dated 2005)
Read-outs that look alike come from different tables or passages of the source.

Columns and labels:
B. subtilis spores = assay type: cell-based, Bacillus subtilis
L. mesenteroides B 512F = assay type: cell-based, Leuconostoc mesenteroides
[1] = test system: B. pumilus RJ 0055 spores; assay type: cell-based, Bacillus pumilus
B. anthracis spores = assay type: cell-based, Bacillus anthracis; conditions: component alone
B. cereus = assay type: cell-based, Bacillus cereus
[2] = test system: Xanthomonas maltophilia 948; assay type: cell-based
B. cereus spores = assay type: cell-based, Bacillus cereus
B. pumilus RJ 0055 = assay type: cell-based, Bacillus pumilus
[3] = test system: Pseudomonas aeruginosa ATCC 1942
B. subtilis = assay type: cell-based, Bacillus subtilis
B. anthracis = assay type: cell-based, Bacillus anthracis; conditions: vegetative cells; component alone; 24 h
[4] = component alone, 24 hours at 35° C.
[5] = vegetative cells, component alone, 24 h

OO [H2O2, hydrogen peroxide]
MIC (E. coli B ATCC 23226): 0.01 wt %
MIC (B. subtilis spores): 5.0 wt %
MIC (L. mesenteroides B 512F): 0.006 wt %
MIC [1]: 4.0 wt %
MIC (B. anthracis spores): 1.0 wt %
MIC (B. cereus): 0.025 wt %
MIC [2]: 0.005 wt %
MIC (B. cereus spores): 5.0 wt %
MIC (B. pumilus RJ 0055): 0.025 wt %
MIC (S typhimurium ATCC 14028): 0.01 wt %
MIC (Listeria monocytogenes): 0.005 wt %
MIC [3]: 150 weight ppm
MIC (B. subtilis): 0.025 wt %
MIC (B. anthracis): 0.01 wt %

[Na+].[Na+].[O-][O-] [Sodium Peroxide, sodium peroxide]
MIC [3, 4]: 150 weight ppm

[Na+].[O-]Cl [NaHClO3, sodium hypochlorite]
MIC (E. coli B ATCC 23226; [5]): 0.02 wt %
MIC (B. subtilis spores; […], component alone): 4.0 wt %
MIC (L. mesenteroides B 512F; [5]): 0.035 wt %
MIC ([1]; […], component alone): 3.5 wt %
MIC (B. anthracis spores): 1.0 wt %
MIC (B. cereus; [5]): 0.1 wt %
MIC [2, 5]: 0.01 wt %
MIC (B. cereus spores; […], component alone): 4.0 wt %
MIC (B. pumilus RJ 0055; [5]): 0.1 wt %
MIC (S typhimurium ATCC 14028; [5]): 0.02 wt %
MIC (Listeria monocytogenes; [5]): 0.05 wt %
MIC [3, 4]: 500 weight ppm
MIC (B. subtilis; [5]): 0.1 wt %
MIC (B. anthracis): 0.05 wt %
